“Also recorded” adds a separate entry of the source. Where two headings read alike, the source gives them in different places.
Tests used:
[1] = test system: SK-BR-3 breast cancer cells; assay: Breast cancer cell growth inhibition (BrdU); assay type: cell-based; conditions: Homo sapiens, SK-BR-3, 72 h, BrdU incorporation, 3-day assay
Experimental: (§1) Cancer cell growth inhibition and analysis. SK-BR-3 human breast cancer cells (ATCC) and LNCaP human prostate cancer cells (ATCC) were plated in 96-well, flat-bottomed microtiter plates (CoStar) with 50 μL serum-containing media/well. […] Cell plating numbers (cells/well) were as follows: SK-BR-3, 3000 (3-day assays); LNCAP, 1000 (4-day assays). Cell plating number was determined by growth rate of each cell line and duration of the assay. […] Cells were allowed to adhere for 24 h prior to compound addition as follows:
(§2) Ten-fold serial dilutions were performed with changing of pipette tips between each dilution. Diluted compounds were then added to the cells (50 μL/well) to final concentrations of 1×10^-5 -1×10^-11 M (1% ethanol) in triplicate. […] BrdU (5-bromo-2'-deoxyuridine) incorporation was analyzed as a measure of DNA replication (Cell Proliferation ELISA kit, Boehringer) and absorbance was measured at 450 nm.
(§3) One row of wells contained media only and these absorbance values were averaged as background and then subtracted from absorbance values from each individual well containing cells. The average values were then determined for each triplicate and plotted vs ligand concentration. The average vehicle (1% ethanol) value was determined, less the background average. […] Potency (EC50) was determined as the concentration of compound that elicited half-maximal response.

[2] = test system: LNCaP prostate cancer cells; assay: Prostate cancer cell growth inhibition (BrdU); assay type: cell-based; conditions: Homo sapiens, 96 h, BrdU incorporation, 4-day assay
Experimental: as §1, §2, §3

[3] = test system: Normal human epidermal keratinocytes (NHEK); assay: Keratinocyte growth inhibition (BrdU); assay type: cell-based; conditions: 96 h, BrdU incorporation, day 4
Experimental: as §2, §3
Keratinocyte growth inhibition. Normal human epidermal keratinocytes (NHEK) were grown according to vendor specifications (Clonetics, San Diego). BrdU assays were performed as above except that cells were plated at 200 cells per well (96-well plates) and fresh media with ligands were added on day 0 and day 2; BrdU assays were run on day 4.

serum DBP = assay: Serum DBP binding, rat or human serum, species not given; conditions: rat (r) or human (h) serum DBP, not marked (r)/(h); competition with [3H]-25(OH)D3
Experimental: Serum DBP-binding. DPB competition binding assays were performed by a literature method (Dusso et al. 1991). The source of DBP was either human serum (Scantibodies) or rat serum (Gibco-BRL) diluted 1:10,000 in sodium phosphate buffer (pH 7.4). Sera were incubated for 2 h at 4° C. with 2 nM [^3 H]-25(OH)D3 (Amersham) with and withoun unlabeled 25(OH)D3 or 1,25(OH)2D3 (0.01 nM-1 μM), or unlabeled vitamin D mimic compounds (10 nM-10 μM). Bound ligand was separated from unbound ligand with Dextran-coated charcoal in gelatin-phosphate buffer.

HL60 cells = assay: Leukemic cell differentiation (NBT and CD14); assay type: cell-based; conditions: Homo sapiens, HL-60, 120 h; NBT and CD14 assays; differentiation into macrophages/monocytes; 5 days
Experimental: Leukemic cell differentiation. […] Ligands were added in ethanol vehicle (1%) at various concentrations for 5 days without changing the media. On the fifth day, cells were harvested and assayed for markers of differentiation. […] Cells that bioreduce the dye turn blue-black and represent differentiated cells, and are counted. Undifferentiated cells are clear and are also counted; percent differentiated cells are then determined from the two numbers.

[4] = In vivo calcium potential: serum calcium (colorimetric); design: species or system mouse (Balb/c mice); conditions: oral gavage
Experimental: (§4) In vivo gene regulation and calcium potential. Balb/c mice (male 6-8 weeks old, ~20 g) were fed a vitamin D deficient, calcium replete diet (Purina Mills) for 7-14 days prior to receiving treatment with compounds. Animals were housed under normal lighting. Compounds were administered in sesame oil vehicle with 4% ethanol by oral gavage (0.1 mL dose volume). […] On the final day of dosing, 4-6 h after the final dose, animals were euthanized, the kidneys removed and blood collected. Serum was prepared from the blood and calcium determination performed by colorimetric assay (Sigma). […] 15-20 μg total RNA was utilized in Northern blot analysis using rat 24(OH)ase probe; GAPDH probe was used to normalize for RNA loading, as described previously (Id). Quantitation was by PhosphorImager analysis.

human VDR [5] = molecular target: T1, human VDR (Homo sapiens, UniProt P11473); assay: biochemical
T1 sequence (P11473 1-427): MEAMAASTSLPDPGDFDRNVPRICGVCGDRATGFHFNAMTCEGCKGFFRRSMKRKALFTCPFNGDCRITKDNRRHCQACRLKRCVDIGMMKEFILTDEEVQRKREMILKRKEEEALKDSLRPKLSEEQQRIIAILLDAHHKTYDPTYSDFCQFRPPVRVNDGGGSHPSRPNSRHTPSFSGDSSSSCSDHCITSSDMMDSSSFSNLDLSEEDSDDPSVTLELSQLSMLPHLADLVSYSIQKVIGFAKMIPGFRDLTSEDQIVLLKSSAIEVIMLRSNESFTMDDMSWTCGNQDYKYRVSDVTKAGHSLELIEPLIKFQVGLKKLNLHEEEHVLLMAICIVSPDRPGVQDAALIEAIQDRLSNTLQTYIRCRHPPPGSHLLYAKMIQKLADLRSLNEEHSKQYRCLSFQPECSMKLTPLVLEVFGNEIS
Experimental: VDR binding. […] Cell extracts from yeast transformants were prepared and full length VDR expression was confirmed by Western blotting. […] Binding buffer contained 10 mM Tris,pH 7.5, 1 mM DTT, and 0.4 M KCl; wash buffer contained 10 mM Tris, 100 mM KCl, and 10 mM CHAPS detergent.

24(OH)ase = assay: In vivo gene regulation: kidney 24(OH)ase RNA induction (Northern blot); design: species or system mouse (Balb/c mice); conditions: for Relative 24(OH)ase activity: oral gavage, vehicle 1, corrected with GAPDH
Experimental: as §4

human VDR [6] = molecular target: T1, human VDR; assay: Cotransactivation (CTF) in Hep G2 cells, VDRE-luciferase reporter; assay type: cell-based; design: expressed in transfected cells; host or cells: Hep G2 (human hepatoma, ATCC)
Experimental: Cotransactivation properties. […] Reporter and receptor containing vectors were transfected along with carrier DNA and β-galactosidase internal control plasmid as previously described except that Hep G2 cells were used (Id). Briefly, transfections were performed in triplicate in 96-well gelatin-coated plates with a total of 20 μg/mL DNA (0.5 μg receptor expression vector, 5 μg reported plasmid, 5 μg β-galactosidase plasmid, and pGEM carrier DNA to 20 μg) of calcium phosphate-HEPES transfection solution. […] Luciferase values were normalized with β-galactosidase values to control for variable transfection efficiencies.

[7] = Animal weight change in LNCaP tumor-bearing nude mice; assay type: in vivo; conditions: vehicle -7.2%
Experimental: (§5) In vivo efficacy. Nude mice (6 weeks old) were housed under normal light and fed a vitamin D deficient, calcium replete diet (Purina Mills) for 7-10 days prior to injection with LNCaP cells. Tumors were allowed to grow 2-4 weeks prior to dosing. Compounds or vehicle were administered in sesame oil by oral gavage (0.1 mL dose volume). Dosing was daily for the extent of the study. Tumor measurements were taken on days 10 and 15. Animals were then euthanized, and kidneys and blood retrieved. Serum calcium measurements were taken from the final bleed and an intermediate bleed on day 10. […] Average animal weight change per group was as follows: Vehicle, -7.2%; Compound 4 (3 mg/kg), -2.1%; Compound 4 (10 mg/kg), -8.9%.

LNCaP tumor = assay: In vivo efficacy: LNCaP tumor growth in nude mice; design: species or system LNCaP human prostate cancer cells in nude mice
Experimental: as §5

[8] = Serum calcium in LNCaP tumor-bearing nude mice; assay type: in vivo; conditions: 3 mg/kg and 10 mg/kg, days 10 and 15
Experimental: FIGS. 1A and 1B depict the In vivo efficacy of compound 4 in LNCaP tumor growth inhibition in nude mice without hypercalcemia.
as §5

[9] = cotransfected VDRE-luciferase reporter and human VDR in Hep G2 cells, read-out: CTF EC50

Structure (SMILES): CCC(CC)(c1ccc(OCC(O)CO)c(C)c1)c1ccc(OCC(O)C(C)(C)C)c(C)c1 (stereo not drawn) [Compound 13, 3-[3-methyl-4-(2,3-dihydroxypropoxy)phenyl]-3-[3-methyl-4-(2-hydroxy-3,3-dimethylbutoxy)phenyl]pentane]
- EC50 [1]: 30 to 50 nM
- EC50 [2]: 20 nM
- EC50 [3]: 30 to 50 nM
- IC50 (serum DBP): > 10000 nM
- EC50 (HL60 cells): 30 to 50 nM

Structure (SMILES): CCC(CC)(c1ccc(OCC(=O)C(C)(C)C)c(C)c1)c1ccc(OCC(=O)C(C)(C)C)c(C)c1 [Compound 7, 3,3-bis[3-methyl-4-(3,3-dimethyl-2-oxobutoxy)phenyl]pentane]
- EC50 [1]: 800 nM
- Serum Ca2+ ([4]; 3-day treatment, 100 μg/kg): 9.6 ± 0.5 mg/dL
- Serum Ca2+ ([4]; 3-day treatment, 500 μg/kg, statistically different than vehicle (p < 0.01)): 11.5 ± 0.9 mg/dL
- Ki (human VDR [5]): > 10000 nM
- EC50 [2]: 300 nM
- EC50 [3]: 500 nM
- IC50 (serum DBP): > 10000 nM
- Ratio 24(OH)ase/Ca2+ (24(OH)ase; 3-day treatment, 100 μg/kg): 0.63
- Ratio 24(OH)ase/Ca2+ increase (24(OH)ase; 3-day treatment, 100 μg/kg): 5.17
- Relative 24(OH)ase activity (24(OH)ase; 3-day treatment, 100 μg/kg): 6.0
- Ratio 24(OH)ase/Ca2+ (24(OH)ase; 3-day treatment, 500 μg/kg): 0.52
- Ratio 24(OH)ase/Ca2+ increase (24(OH)ase; 3-day treatment, 500 μg/kg): 1.88
- Relative 24(OH)ase activity (24(OH)ase; 3-day treatment, 500 μg/kg): 6.0
- EC50 (HL60 cells): 800 nM
- EC50 (human VDR [6]; [9]): 600 nM

Structure (SMILES): CCC(CC)(c1ccc(OCC(=O)C(C)(C)C)c(C)c1)c1ccc(OCC(O)C(C)(C)C)c(C)c1 (stereo not drawn) [Compound 11, 3-[3-methyl-4-(2-hydroxy-3,3-dimethylbutoxy)phenyl]-3-[3-methyl-4-(3,3-dimethyl-2-oxobutoxy)phenyl]pentane]
- EC50 [1]: 500 nM
- Ki (human VDR [5]): > 10000 nM
- EC50 [2]: 500 nM
- IC50 (serum DBP): > 10000 nM
- EC50 (HL60 cells): 400 nM
- EC50 (human VDR [6]): 400 nM

Structure (SMILES): CCC(CC)(c1ccc(OCC(=O)C(C)(C)C)c(C)c1)c1ccc(OCC2CO2)c(C)c1 (stereo not drawn) [Compound 9, 3-[3-methyl-4-(2,3-epoxypropoxy)phenyl]-3-[3-methyl-4-(3,3-dimethyl-2-oxobutoxy)phenyl]pentane]
- EC50 [1]: 150 nM
- Ki (human VDR [5]): > 10000 nM
- EC50 [2]: 100 nM
- EC50 [3]: 200 nM
- IC50 (serum DBP): > 10000 nM
- EC50 (HL60 cells): 150 nM
- EC50 (human VDR [6]; [9]): 60 nM

Structure (SMILES): Cc1cc(C2(c3ccc(OCC(=O)C(C)(C)C)c(C)c3)CCCCC2)ccc1OCC(=O)C(C)(C)C [Compound 4, 1,1-bis[3-methyl-4-(3,3-dimethyl-2-oxobutoxy)phenyl]cyclohexane]
- Average animal weight change per group ([7]; 3 mg/kg): -2.1%
- Average animal weight change per group ([7]; 10 mg/kg): -8.9%
- EC50 [1]: 2000 nM
- Serum Ca2+ ([4]; 3-day treatment, 10 mg/kg): 9.1 ± 0.5 mg/dL
- Serum Ca2+ ([4]; 3-day treatment, 30 mg/kg): 9.0 ± 0.6 mg/dL
- Serum Ca2+ ([4]; 5-day treatment, 10 mg/kg): 9.1 ± 0.2 mg/dL
- Serum Ca2+ ([4]; 5-day treatment, 30 mg/kg): 10.1 ± 0.5 mg/dL
- tumor growth rate vs control group (LNCaP tumor; 3 mg/kg and 10 mg/kg oral gavage daily): decreased tumor growth rates as compared to the control group
- tumor size vs vehicle (FIG. 1A) (LNCaP tumor; 10 and 15 days post dosing): smaller
- Ki (human VDR [5]): > 10000 nM
- EC50 [2]: 2000 nM
- EC50 [3]: 500 nM
- serum calcium levels / hypercalcemia (FIG. 1B) [8]: hypercalcemia was not observed; also recorded: normal serum calcium levels
- IC50 (serum DBP): > 10000 nM
- Ratio 24(OH)ase/Ca2+ (24(OH)ase; 3-day treatment, 10 mg/kg): 1.48
- Ratio 24(OH)ase/Ca2+ increase (24(OH)ase; 3-day treatment, 10 mg/kg): 16.9
- Relative 24(OH)ase activity (24(OH)ase; 3-day treatment, 10 mg/kg): 13.5
- Ratio 24(OH)ase/Ca2+ (24(OH)ase; 3-day treatment, 30 mg/kg): 1.18
- Ratio 24(OH)ase/Ca2+ increase (24(OH)ase; 3-day treatment, 30 mg/kg): 15.1
- Relative 24(OH)ase activity (24(OH)ase; 3-day treatment, 30 mg/kg): 10.6
- Ratio 24(OH)ase/Ca2+ (24(OH)ase; 5-day treatment, 10 mg/kg): 3.38
- Ratio 24(OH)ase/Ca2+ increase (24(OH)ase; 5-day treatment, 10 mg/kg): 61.6
- Relative 24(OH)ase activity (24(OH)ase; 5-day treatment, 10 mg/kg): 30.8
- Ratio 24(OH)ase/Ca2+ (24(OH)ase; 5-day treatment, 30 mg/kg): 5.31
- Ratio 24(OH)ase/Ca2+ increase (24(OH)ase; 5-day treatment, 30 mg/kg): 35.8
- Relative 24(OH)ase activity (24(OH)ase; 5-day treatment, 30 mg/kg): 53.7
- separation of target gene induction from serum calcium (24(OH)ase; mice, vs 1,25(OH)2 D3): greater separation of these effects for 4 than for 1,25(OH)2 D3; also recorded: good separation of target gene regulation from serum calcium elevation
- EC50 (HL60 cells): 2000 nM
- EC50 (human VDR [6]): 2200 nM

Structure (SMILES): C=C1/C(=C\C=C2/CCC[C@]3(C)[C@@H]([C@H](C)CCCC(C)(C)O)CC[C@@H]23)C[C@@H](O)C[C@@H]1O [1,25(OH)2 D3, 1,25-dihydroxyvitamin D3, reference compound]
- EC50 [1]: 8 to 10 nM
- Serum Ca2+ ([4]; 3-day treatment, 15 μg/kg, statistically different than vehicle (p < 0.01)): > 15 mg/dL
- Serum Ca2+ ([4]; 5-day treatment, 2 μg/kg): 9.7 ± 0.6 mg/dL
- Serum Ca2+ ([4]; 5-day treatment, 5 μg/kg, statistically different than vehicle (p < 0.01)): 10.5 ± 0.6 mg/dL
- EC50 [2]: 2 nM
- EC50 [3]: 10 to 30 nM
- EC50 (HL60 cells): 8 to 10 nM
